Laboratory results published in patent publication US11413278B2, “Compounds and methods for promoting stress resistance” (priority 2015, dated 2022).
Entries after “also recorded” stand apart in the source; their conditions may differ. Where two headings read alike, the source gives them in different places.

Experiments:
[1] = system: WI-38 cells; assay: MMS resistance assay; assay type: cell-based, human; details: for fold induction at 10 µM: Homo sapiens, 12 h; for Assay 3: MMS-resistant / Assay 5: Triple resistant: YES/NO; for Assay 3: MMS-resistant: * indicates partial; for Assay 5: Triple resistant: H2O2, cadmium and MMS
Method in brief: (§1)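 Resistance to CdCl2 or MMS stress (12 h exposure) was scored in WI-38 fibroblasts pretreated with compound at 0.25–20 μM final, five doses, technical triplicates. MMS plates had compound added 24 h before MMS, after a shift to serum-free DMEM+2% BSA. Significance came from a global variance t-test over two independent runs.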

[2] = system: WI-38 cells; assay: Propidium iodide (PI) cell-death imaging upon H2O2 stress; assay type: cell-based, human; details: for Assay 7: H2O2-resistant, at 10 uM, validated by propidium iodide (PI) cell-death imaging: w/H2O2, 3 hrs/4 hrs/5 hrs, YES/NO; for cytotoxicity at 10 µM: Homo sapiens, WI-38
[3] = system: WI-38 cells
Description: WI-38 cells were seeded on 384-well plates for 24 hrs and then incubated with small molecules for 24 hrs. […] Images were collected on an INCell Analyzer 2000 (GE) and analyzed with the Developer software.

[4] = system: human dermal fibroblast (HDF) primary cells; assay: H2O2-resistance in primary human dermal fibroblasts; assay type: cell-based; details: for fold induction at 10 µM: Homo sapiens; for Assay 6: H2O2-resistant, at 10 uM, human dermal fibroblast (HDF) primary cells: YES/NO
[5] = molecular target: T1, human PARP1 (Homo sapiens, UniProt P09874); assay: PARP inhibitor assay (HT Fluorescent Homogeneous PARP Inhibition Assay Kit); assay type: biochemical; details: for L = PARP inhibition: score
T1 construct: purchased Trevigen
T1 sequence (P09874 whole entry): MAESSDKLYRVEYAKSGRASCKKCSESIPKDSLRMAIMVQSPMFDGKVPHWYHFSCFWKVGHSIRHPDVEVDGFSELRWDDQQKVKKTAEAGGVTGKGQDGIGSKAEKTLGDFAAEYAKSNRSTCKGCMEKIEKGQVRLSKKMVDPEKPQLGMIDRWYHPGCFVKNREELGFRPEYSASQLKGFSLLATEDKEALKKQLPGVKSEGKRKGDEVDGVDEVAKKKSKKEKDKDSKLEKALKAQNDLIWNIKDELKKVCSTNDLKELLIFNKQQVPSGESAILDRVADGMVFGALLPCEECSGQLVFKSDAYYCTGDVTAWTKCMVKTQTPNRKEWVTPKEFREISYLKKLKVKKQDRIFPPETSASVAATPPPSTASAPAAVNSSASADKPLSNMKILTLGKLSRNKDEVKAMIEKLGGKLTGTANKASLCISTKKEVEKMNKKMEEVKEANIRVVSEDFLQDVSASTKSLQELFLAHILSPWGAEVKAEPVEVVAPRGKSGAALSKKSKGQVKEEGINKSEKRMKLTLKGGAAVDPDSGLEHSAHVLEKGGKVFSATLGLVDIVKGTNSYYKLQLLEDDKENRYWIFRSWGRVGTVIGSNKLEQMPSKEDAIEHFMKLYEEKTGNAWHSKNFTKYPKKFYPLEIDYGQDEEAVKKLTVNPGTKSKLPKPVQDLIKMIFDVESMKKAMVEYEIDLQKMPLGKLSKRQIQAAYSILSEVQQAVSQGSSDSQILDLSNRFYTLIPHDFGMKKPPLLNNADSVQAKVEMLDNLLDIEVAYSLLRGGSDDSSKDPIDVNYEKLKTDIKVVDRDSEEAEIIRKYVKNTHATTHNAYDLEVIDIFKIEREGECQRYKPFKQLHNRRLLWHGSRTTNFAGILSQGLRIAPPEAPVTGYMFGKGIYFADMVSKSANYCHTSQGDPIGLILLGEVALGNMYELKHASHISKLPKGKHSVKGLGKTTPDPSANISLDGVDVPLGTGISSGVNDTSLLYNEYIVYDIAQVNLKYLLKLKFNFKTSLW
Method in brief: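 Compounds (10 μM final) incubated 30 min, room temperature, dark, with human PARP1, nicotinamide adenine dinucleotide and activated DNA. Fluorescent signal generated by 1 hr cycling with diaphorase and resazurin, then reaction stopped.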

[6] = system: PC12 cells expressing poly(Q)103-Htt-EGFP; assay: Poly(Q) toxicity & viability analysis (cellular model of Huntington's disease); assay type: cell-based, rat; details: for M = Huntington's poly-Q toxicity attenuation: score; for K = Huntington's poly-Q toxicity attenuation: summary score
Method in brief: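 Readout is CellTiter-Glo ATP content measured after 48 hrs. Cells are a PC12 line stably expressing inducible poly(Q)103-Htt-EGFP, where induction produces toxic aggregates.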

[7] = Summary score for characterization of 38 core set hits; details: for D = Triple resistant: 2-point score, multiplex resistance (cadmium, MMS, H2O2); for C = H2O2- & Cd-resistant: score, resistance to both H2O2 and cadmium
Description: 38 “core set” small molecules are listed and are assigned a score, based on the result for each individual characterization. From our small molecule screen for H2O2-resistance, we isolated 61 top hits. […] Specifically, a 2-point score was assigned to the most well-known and prominent longevity-related phenotypes, such as multiplex resistance, activation of FOXO3 and/or NRF2, and down-regulation of mTOR. Small molecules were also analyzed for their ability to extend C. elegans' lifespan in 4 to 6 independent trials, and the lifespan score scale is from 0 to 2: 0 for no obvious effects, 1 for lifespan extension observed in 2 trials, 2 for observed in more than 2 trials. Certain molecules appeared to have DNA-damaging effects and/or potential cell-toxicity in cultured human cells, and they receive a negative point.

[8] = system: WI-38 cells; assay: CdCl2 (cadmium) resistance assay; assay type: cell-based, human; details: for fold induction at 10 µM: Homo sapiens, 12 h; for Assay 4: H2O2- & Cd-resistant / Assay 2: Cadmium-resistant: YES/NO; for Assay 2: Cadmium-resistant: * indicates partial
Method in brief: as §1

[9] = Exp. 1, WI-38 cells, 10 uM, normalized ATP measurement, read-out: Exp. 1, under MMS stress treatment, at 10 uM (fold change)
[10] = Exp. 2, WI-38 cells, 10 uM, normalized ATP measurement, read-out: Exp. 2, under MMS stress treatment, at 10 uM (fold change)
[11] = score in summary of 38 core set hits
[12] = H2O2 3 hrs, 10 uM, n = 6, negative control 5.44% ± 0.79%, read-out: Percentage of propidium iodide-positive dead cells (under H2O2 stress treatment), 3 hrs
[13] = pre-treatment at 10 uM, 3.5 hours of H2O2, DMSO control 27.4% ± 6.5%, */**/*** = reduced by one/two/three standard deviations, read-out: Percentage of propidium iodide-positive dead cells (under H2O2 stress treatment), at 10 uM
[14] = no H2O2 stress, 10 uM, negative control 0.41% ± 0.23%
[15] = Experiment 1, HDF cells, read-out: Experiment 1, HDF cells (under H2O2 stress treatment), at 10 uM (fold change)
[16] = Experiment 2, HDF cells, read-out: Experiment 2, HDF cells (under H2O2 stress treatment), at 10 uM (fold change)
[17] = Exp. 1, WI-38 cells, 10 uM, normalized ATP measurement, read-out: Exp. 1, under Cd2Cl2 stress treatment, at 10 uM (fold change)
[18] = Exp. 2, WI-38 cells, 10 uM, normalized ATP measurement, read-out: Exp. 2, under Cd2Cl2 stress treatment, at 10 uM (fold change)
[19] = WI-38 cells, 10 μM, both stressors
[20] = Exp. 1, WI-38 cells, 10 uM, normalized ATP measurement
[21] = Exp. 2, WI-38 cells, 10 uM, normalized ATP measurement

## Cc1ccc(NC(=O)c2ccc([N+](=O)[O-])o2)cc1C [Gr-1F]
[1]; [9]
  fold induction at 10 µM: 0.74
[1]; [10]
  fold induction at 10 µM: 2.07
[1]
  Assay 3: MMS-resistant: YES
  Assay 5: Triple resistant: YES
[1]; [11]
  B = MMS resistant: 0
[1]; summary score
  B = MMS resistant: 1
  D = Triple resistant: 2
[2]; 10 uM
  Assay 7: H2O2-resistant, at 10 uM, validated by propidium iodide (PI) cell-death imaging: YES
[2]; [12]
  cytotoxicity at 10 µM: 3.55%
[2]; H2O2 4 hrs, 10 uM, n = 6, negative control 16.81% ± 1.42%, read-out: Percentage of propidium iodide-positive dead cells (under H2O2 stress treatment), 4 hrs
  cytotoxicity at 10 µM: 3.07%
[2]; H2O2 5 hrs, 10 uM, n = 6, negative control 22.50% ± 1.53%, read-out: Percentage of propidium iodide-positive dead cells (under H2O2 stress treatment), 5 hrs
  cytotoxicity at 10 µM: 4.57%
[2]; [13]
  cytotoxicity at 10 µM: 11.2%
[3]; Assay 8(k), without H2O2, at 10 uM
  PI cell-death imaging without H2O2 (indicating potential toxicity): YES
[3]; WI-38, no H2O2
  Percentage of propidium iodide-positive (dead) cells under normal conditions (qualitative): increased the percentage
[3]; WI-38, no H2O2, control 0.4±0.2%
  PI-positive dead cells under normal conditions: 3.3±0.8%
[3]; [14]
  Percentage of propidium iodide-positive dead cells (no H2O2 stress treatment), at 10 uM: 3.27% ± 0.82%,
[4]; [15]
  fold induction at 10 µM: 5.84
[4]; [16]
  fold induction at 10 µM: 52.3
[4]
  Assay 6: H2O2-resistant, at 10 uM, human dermal fibroblast (HDF) primary cells: YES
[5]
  L = PARP inhibition: 0
[6]
  M = Huntington's poly-Q toxicity attenuation: 0
  K = Huntington's poly-Q toxicity attenuation: 0
[7]
  D = Triple resistant: 0
  C = H2O2- & Cd-resistant: 1
[7]; human
  S = Sum of Negative scores: 2
[8]
  CdCl2-resistant: YES
  H2O2- & CdCl2-resistant: YES
  Assay 4: H2O2- & Cd-resistant: YES
  Assay 2: Cadmium-resistant: YES
[8]; [17]
  fold induction at 10 µM: 6.65
[8]; [18]
  fold induction at 10 µM: 4.8
[8]; WI-38 cells, 10 μM
  CdCl2-resistant: YES
[8]; [19]
  H2O2- & CdCl2-resistant: YES
[8]; [11]
  A = Cadmium resistant: 1
[8]; summary score
  A = Cadmium resistant: 1
  C = H2O2- & Cd-resistant: 1

## COc1cc2c(no[n+]2[O-])n2nnnc12 [O11]
[1]; [20]
  Exp. 1, under MMS stress treatment, at 10 uM (fold change): 0.97 fold change
[1]; [21]
  Exp. 2, under MMS stress treatment, at 10 uM (fold change): 4.20 fold change
[1]; [11]
  B = MMS resistant: 0
[1]; summary score
  B = MMS resistant: 0
  D = Triple resistant: 0
[2]; 10 uM
  Assay 7: H2O2-resistant, at 10 uM, validated by propidium iodide (PI) cell-death imaging: YES
[2]; H2O2 3 hrs, 10 uM, n = 6, negative control 5.44% ± 0.79%
  Percentage of propidium iodide-positive dead cells (under H2O2 stress treatment), 3 hrs: 2.19% ± 0.35%,
[2]; H2O2 4 hrs, 10 uM, n = 6, negative control 16.81% ± 1.42%
  Percentage of propidium iodide-positive dead cells (under H2O2 stress treatment), 4 hrs: 2.80% ± 0.49%,
[2]; H2O2 5 hrs, 10 uM, n = 6, negative control 22.50% ± 1.53%
  Percentage of propidium iodide-positive dead cells (under H2O2 stress treatment), 5 hrs: 2.90% ± 0.70%,
[2]; pre-treatment at 10 uM, 3.5 hours of H2O2, DMSO control 27.4% ± 6.5%, */**/*** = reduced by one/two/three standard deviations
  Percentage of propidium iodide-positive dead cells (under H2O2 stress treatment), at 10 uM: 26.5%
[3]
  PI cell-death imaging without H2O2 (indicating potential toxicity): YES
[3]; human
  PI-positive dead cells under normal conditions: 1.9%±0.7%
  Percentage of propidium iodide-positive dead cells (no H2O2 stress treatment), at 10 uM: 1.86% ± 0.71%,
[4]; Experiment 1, HDF cells
  Experiment 1, HDF cells (under H2O2 stress treatment), at 10 uM (fold change): 16.57 fold change
[4]; Experiment 2, HDF cells
  Experiment 2, HDF cells (under H2O2 stress treatment), at 10 uM (fold change): 55.68 fold change
[4]
  Assay 6: H2O2-resistant, at 10 uM, human dermal fibroblast (HDF) primary cells: YES
[5]
  L = PARP inhibition: 0
[6]
  M = Huntington's poly-Q toxicity attenuation: 0
  K = Huntington's poly-Q toxicity attenuation: 0
[7]
  D = Triple resistant: 0
  C = H2O2- & Cd-resistant: 1
[7]; sum of columns Q and R
  S = Sum of Negative scores: 1
[8]
  CdCl2-resistant: YES
  H2O2- & CdCl2-resistant: YES
  Assay 4: H2O2- & Cd-resistant: YES
  Assay 2: Cadmium-resistant: YES
[8]; [20]
  Exp. 1, under CdCl2 stress treatment, at 10 uM (fold change): 3.78 fold change
[8]; [21]
  Exp. 2, under CdCl2 stress treatment, at 10 uM (fold change): 2.80 fold change
[8]; WI-38 cells, 10 μM
  CdCl2-resistant: YES
[8]; [19]
  H2O2- & CdCl2-resistant: YES
[8]; [11]
  A = Cadmium resistant: 1
[8]; summary score
  A = Cadmium resistant: 1
  C = H2O2- & Cd-resistant: 1

## Oc1ncnc2sc3c(c12)CCC3 [O14]
[1]; [9]
  fold induction at 10 µM: 0.84
[1]; [10]
  fold induction at 10 µM: 3.45
[1]
  Assay 3: MMS-resistant: YES
  Assay 5: Triple resistant: YES
[1]; [11]
  B = MMS resistant: 0
[1]; summary score
  B = MMS resistant: 1
  D = Triple resistant: 2
[2]; 10 uM
  Assay 7: H2O2-resistant, at 10 uM, validated by propidium iodide (PI) cell-death imaging: YES
[2]; [12]
  cytotoxicity at 10 µM: 3.8%
[2]; [13]
  cytotoxicity at 10 µM: 12.7%
[3]; [14]
  Percentage of propidium iodide-positive dead cells (no H2O2 stress treatment), at 10 uM: 0.41% ± 0.22%,
[4]; [15]
  fold induction at 10 µM: 2.87
[4]; [16]
  fold induction at 10 µM: 4.73
[4]
  Assay 6: H2O2-resistant, at 10 uM, human dermal fibroblast (HDF) primary cells: YES
[5]; 10 μM, in vitro
  Inhibition of PARP1: inhibitors of PARP1; also recorded: identified PARP inhibitor
[5]
  L = PARP inhibition: 1
[6]
  M = Huntington's poly-Q toxicity attenuation: 0
  K = Huntington's poly-Q toxicity attenuation: 0
[7]
  D = Triple resistant: 0
  C = H2O2- & Cd-resistant: 1
[7]; human
  S = Sum of Negative scores: 0
[8]
  CdCl2-resistant: YES
  H2O2- & CdCl2-resistant: YES
  Assay 4: H2O2- & Cd-resistant: YES
  Assay 2: Cadmium-resistant: YES
[8]; [17]
  fold induction at 10 µM: 2.2
[8]; [18]
  fold induction at 10 µM: 2.69
[8]; WI-38 cells, 10 μM
  CdCl2-resistant: YES
[8]; [19]
  H2O2- & CdCl2-resistant: YES
[8]; [11]
  A = Cadmium resistant: 1
[8]; summary score
  A = Cadmium resistant: 1
  C = H2O2- & Cd-resistant: 1
